# Results: patent US20250296959A1, “B7-H3 TARGETING PEPTIDES AND CONSTRUCTS THEREOF” (Mariana Oncology Inc., priority 2024, published 2025)
# Starred links: 1 amine or outer side, 2 acyl side, 3 side chain; linkers in the order of their positions; H or OH if unused. Positions of bridges follow the written chain, without caps; N, C: chain ends. Non-standard residues stand in square brackets, D forms with d. Residues, ends and D or L forms follow the SMILES beside them. *: point of attachment. X16 = O=C(O)CCOCCOCCOCCOCCOCCOCCOCCOCCOCCOCCOCCOCCOCCOCCOCCOCCOCCOCCOCCOCCOCCC(=O)*; Ala(piperidin-4-yl) = O=C([C@H](CC1CCN([*:3])CC1)N[*:1])[*:2]; DOTA = O=C(O)CN1CCN(CC(=O)O)CCN(CC(=O)*)CCN(CC(=O)O)CC1; Trp(5-F) = N[C@@H](Cc1c[nH]c2ccc(F)cc12)C(=O)O; 1Nal = N[C@@H](Cc1cccc2ccccc12)C(=O)O; Ala(4-THP) = N[C@@H](CC1CCOCC1)C(=O)O; Val(3-OH) = CC(C)(O)[C@H](N)C(=O)O; 4Pal = N[C@@H](Cc1ccncc1)C(=O)O; Tle = CC(C)(C)[C@H](N)C(=O)O; hLeu = CC(C)CC[C@H](N)C(=O)O; Nle = CCCC[C@H](N)C(=O)O; CH2 = C([*:1])[*:2]
# Molecular target: T1, human 4lg B7-H3 (Homo sapiens, UniProt Q5ZPR3)
# T1 sequence (Q5ZPR3 29-534): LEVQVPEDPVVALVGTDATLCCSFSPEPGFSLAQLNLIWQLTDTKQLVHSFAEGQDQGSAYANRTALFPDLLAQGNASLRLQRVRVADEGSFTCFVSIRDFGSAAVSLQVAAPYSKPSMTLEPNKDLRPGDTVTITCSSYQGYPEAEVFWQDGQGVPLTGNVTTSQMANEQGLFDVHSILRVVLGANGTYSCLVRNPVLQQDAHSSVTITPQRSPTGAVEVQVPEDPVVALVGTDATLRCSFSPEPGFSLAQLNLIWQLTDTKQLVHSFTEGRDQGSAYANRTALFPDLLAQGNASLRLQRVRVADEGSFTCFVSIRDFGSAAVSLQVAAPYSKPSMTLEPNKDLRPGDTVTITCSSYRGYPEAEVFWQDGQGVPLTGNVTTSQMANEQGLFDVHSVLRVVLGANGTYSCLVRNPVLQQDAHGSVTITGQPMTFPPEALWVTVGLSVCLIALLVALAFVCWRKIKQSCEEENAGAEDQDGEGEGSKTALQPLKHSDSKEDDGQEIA
# Test: Affinity determination by surface plasmon resonance (SPR) to 4Ig B7-H3
# Settings: SPR KD—25° C., 4Ig B7-H3; 25° C. flow cell temperature
row,Kd [nM],Structure (SMILES)
1,< 1,"CC(=O)N[C@@H](CCC(C)C)C(=O)N[C@@H](Cc1ccc(O)cc1)C(=O)N[C@H]1CSSC[C@@H](C(=O)N[C@@H](Cc2c[nH]c3ccc(F)cc23)C(=O)N[C@@H](Cc2ccccc2)C(=O)N[C@H](C(=O)N[C@H](CCCCNC(=O)CN2CCN(CC(=O)O)CCN(CC(=O)O)CCN(CC(=O)O)CC2)C(=O)O)[C@@H](C)O)NC(=O)[C@H](Cc2ccc(O)cc2)NC(=O)[C@H](C(C)C)NC(=O)[C@H](CC(=O)O)NC(=O)[C@H](CC2CCOCC2)NC(=O)[C@H](CCCCN)NC(=O)CNC(=O)[C@H](C(C)(C)C)NC1=O [compound 332, Ac-hLeu-Y-C-Tbg-G-K-ThpA-D-V-Y-C-5FW-F-Thr-dLys(DOTA)-COOH] (Ac-[hLeu]YC[Tle]GK[Ala(4-THP)]DVYC[Trp(5-F)]FT[dK](DOTA)-OH; disulfide 3-11)"
2,10 to 100,"CCCC[C@H](NC(=O)[C@H](Cc1c[nH]c2ccc(F)cc12)NC(=O)[C@@H]1CSSC[C@H](NC(=O)[C@H](Cc2ccc(O)cc2)NC(=O)[C@H](CCC(C)C)NC(C)=O)C(=O)N[C@@H](C(C)(C)C)C(=O)NCC(=O)N[C@@H](CCCCN)C(=O)N[C@@H](CC2CCOCC2)C(=O)N[C@@H](CC(=O)O)C(=O)N[C@@H](C(C)C)C(=O)N[C@@H](Cc2ccc(O)cc2)C(=O)N1)C(=O)N[C@H](C(=O)N[C@H](CCCCNC(=O)CN1CCN(CC(=O)O)CCN(CC(=O)O)CCN(CC(=O)O)CC1)C(=O)O)[C@@H](C)O [compound 333, Ac-hLeu-Y-C-Tbg-G-K-ThpA-D-V-Y-C-5FW-Nle-Thr-dLys(DOTA)-COOH] (Ac-[hLeu]YC[Tle]GK[Ala(4-THP)]DVYC[Trp(5-F)][Nle]T[dK](DOTA)-OH; disulfide 3-11)"
3,10 to 100,"CC(=O)N[C@@H](CCC(C)C)C(=O)N[C@@H](Cc1ccc(O)cc1)C(=O)N[C@H]1CSSC[C@@H](C(=O)N[C@@H](Cc2c[nH]c3ccc(F)cc23)C(=O)N[C@@H](CC(C)C)C(=O)N[C@H](C(=O)N[C@H](CCCCNC(=O)CN2CCN(CC(=O)O)CCN(CC(=O)O)CCN(CC(=O)O)CC2)C(=O)O)[C@@H](C)O)NC(=O)[C@H](Cc2ccc(O)cc2)NC(=O)[C@H](C(C)C)NC(=O)[C@H](CC(=O)O)NC(=O)[C@H](CC2CCOCC2)NC(=O)[C@H](CCCCN)NC(=O)CNC(=O)[C@H](C(C)(C)C)NC1=O [compound 334, Ac-hLeu-Y-C-Tbg-G-K-ThpA-D-V-Y-C-5FW-Leu-Thr-dLys(DOTA)-COOH] (Ac-[hLeu]YC[Tle]GK[Ala(4-THP)]DVYC[Trp(5-F)]LT[dK](DOTA)-OH; disulfide 3-11)"
4,1 to 10,"CC(=O)N[C@@H](CCC(C)C)C(=O)N[C@@H](Cc1ccc(O)cc1)C(=O)N[C@H]1CSSC[C@@H](C(=O)N[C@@H](Cc2c[nH]c3ccc(F)cc23)C(=O)N[C@H](C(=O)N[C@H](C(=O)N[C@H](CCCCNC(=O)CN2CCN(CC(=O)O)CCN(CC(=O)O)CCN(CC(=O)O)CC2)C(=O)O)[C@@H](C)O)C(C)(C)C)NC(=O)[C@H](Cc2ccc(O)cc2)NC(=O)[C@H](C(C)C)NC(=O)[C@H](CC(=O)O)NC(=O)[C@H](CC2CCOCC2)NC(=O)[C@H](CCCCN)NC(=O)CNC(=O)[C@H](C(C)(C)C)NC1=O [compound 335, Ac-hLeu-Y-C-Tbg-G-K-ThpA-D-V-Y-C-5FW-Tbg-Thr-dLys(DOTA)-COOH] (Ac-[hLeu]YC[Tle]GK[Ala(4-THP)]DVYC[Trp(5-F)][Tle]T[dK](DOTA)-OH; disulfide 3-11)"

# Further lines, the compound ahead of its results:
row,Structure (SMILES),Kd [nM]
1,"CC(=O)N[C@@H](CCC(C)C)C(=O)N[C@@H](Cc1ccc(O)cc1)C(=O)N[C@H]1CSCSC[C@@H](C(=O)N[C@@H](Cc2cccc3ccccc23)C(=O)N[C@@H](Cc2ccccc2)C(=O)N2CCC[C@H]2C(N)=O)NC(=O)[C@H](Cc2ccc(O)cc2)NC(=O)[C@H](C(C)C)NC(=O)[C@H](CC(=O)O)NC(=O)[C@H](Cc2ccncc2)NC(=O)[C@H](CCCCNC(=O)CN2CCN(CC(=O)O)CCN(CC(=O)O)CCN(CC(=O)O)CC2)NC(=O)CNC(=O)[C@H](C(C)(C)C)NC1=O [compound 330, Ac-hLeu-Y-C(CH2)-Tbg-G-Lys(DOTA)-4PyA-D-V-Y-C-1Nal-F-Pro-CONH2] (Ac-[hLeu]YC[Tle]GK(DOTA)[4Pal]DVYC[1Nal]FP-NH2; linker 3-11 via CH2)",100 to 300
2,"CC(=O)N[C@@H](CCC(C)C)C(=O)N[C@@H](Cc1ccc(O)cc1)C(=O)N[C@H]1CSSC[C@@H](C(=O)N[C@@H](Cc2c[nH]c3ccc(F)cc23)C(=O)N[C@@H](Cc2ccccc2)C(=O)N[C@H](C(=O)N[C@H](CCCCNC(=O)CN2CCN(CC(=O)O)CCN(CC(=O)O)CCN(CC(=O)O)CC2)C(=O)O)[C@@H](C)O)NC(=O)[C@H](Cc2ccc(O)cc2)NC(=O)[C@H](C(C)C)NC(=O)[C@H](CC(=O)O)NC(=O)[C@H](CC2CCOCC2)NC(=O)[C@H](CCCCN)NC(=O)CNC(=O)[C@H](C(C)C)NC1=O [compound 331, Ac-hLeu-Y-C-V-G-K-ThpA-D-V-Y-C-5FW-F-Thr-dLys(DOTA)-COOH] (Ac-[hLeu]YCVGK[Ala(4-THP)]DVYC[Trp(5-F)]FT[dK](DOTA)-OH; disulfide 3-11)",< 1

# Same assay, conditions: SPR KD—37° C., 4Ig B7-H3; 37° C. flow cell temperature
row,Kd [nM],Structure (SMILES)
1,10 to 100,"CC(=O)N[C@@H](CCC(C)C)C(=O)N[C@@H](Cc1ccc(O)cc1)C(=O)N[C@H]1CSSC[C@@H](C(=O)N[C@@H](Cc2c[nH]c3ccc(F)cc23)C(=O)N[C@@H](Cc2ccccc2)C(=O)N[C@H](C(=O)O)[C@@H](C)O)NC(=O)[C@H](Cc2ccc(O)cc2)NC(=O)[C@H](C(C)C)NC(=O)[C@H](CC(=O)O)NC(=O)[C@H](CC2CCOCC2)NC(=O)[C@H](CCCCNC(=O)CN2CCN(CC(=O)O)CCN(CC(=O)O)CCN(CC(=O)O)CC2)NC(=O)CNC(=O)[C@H](C(C)(C)C)NC1=O [compound 328, Ac-hLeu-Y-C-Tbg-G-Lys(DOTA)-ThpA-D-V-Y-C-5FW-F-Thr-COOH] (Ac-[hLeu]YC[Tle]GK(DOTA)[Ala(4-THP)]DVYC[Trp(5-F)]FT-OH; disulfide 3-11)"
2,10 to 100,"CCCC[C@H](NC(=O)[C@H](Cc1c[nH]c2ccc(F)cc12)NC(=O)[C@@H]1CSSC[C@H](NC(=O)[C@H](Cc2ccc(O)cc2)NC(=O)[C@H](CCC(C)C)NC(C)=O)C(=O)N[C@@H](C(C)(C)C)C(=O)NCC(=O)N[C@@H](CCCCNC(=O)CN2CCN(CC(=O)O)CCN(CC(=O)O)CCN(CC(=O)O)CC2)C(=O)N[C@@H](CC2CCOCC2)C(=O)N[C@@H](CC(=O)O)C(=O)N[C@@H](C(C)C)C(=O)N[C@@H](Cc2ccc(O)cc2)C(=O)N1)C(=O)N[C@H](C(N)=O)C(C)(C)O [compound 336, Ac-hLeu-Y-C-Tbg-G-Lys(DOTA)-ThpA-D-V-Y-C-5FW-Nle-hydroxyVal-CONH2] (Ac-[hLeu]YC[Tle]GK(DOTA)[Ala(4-THP)]DVYC[Trp(5-F)][Nle][Val(3-OH)]-NH2; disulfide 3-11)"
3,1 to 10,"CC(=O)N[C@@H](CCC(C)C)C(=O)N[C@@H](Cc1ccc(O)cc1)C(=O)N[C@H]1CSSC[C@@H](C(=O)N[C@@H](Cc2c[nH]c3ccc(F)cc23)C(=O)N[C@@H](Cc2ccccc2)C(=O)N[C@H](C(=O)N[C@H](CCCCN)C(N)=O)C(C)(C)O)NC(=O)[C@H](Cc2ccc(O)cc2)NC(=O)[C@H](C(C)C)NC(=O)[C@H](CC(=O)O)NC(=O)[C@H](CC2CCOCC2)NC(=O)[C@H](CCCCNC(=O)CN2CCN(CC(=O)O)CCN(CC(=O)O)CCN(CC(=O)O)CC2)NC(=O)CNC(=O)[C@H](C(C)(C)C)NC1=O [compound 337, Ac-hLeu-Y-C-Tbg-G-Lys(DOTA)-ThpA-D-V-Y-C-5FW-F-hydroxyVal-dLys-CONH2] (Ac-[hLeu]YC[Tle]GK(DOTA)[Ala(4-THP)]DVYC[Trp(5-F)]F[Val(3-OH)][dK]-NH2; disulfide 3-11)"
4,10 to 100,"CC(=O)N[C@@H](CCC(C)C)C(=O)N[C@@H](Cc1ccc(O)cc1)C(=O)N[C@H]1CSSC[C@@H](C(=O)N[C@@H](Cc2c[nH]c3ccc(F)cc23)C(=O)N[C@@H](Cc2ccccc2)C(=O)N[C@H](C(=O)N[C@H](CCCCNC(=O)CN2CCN(CC(=O)O)CCN(CC(=O)O)CCN(CC(=O)O)CC2)C(=O)O)[C@@H](C)O)NC(=O)[C@H](Cc2ccc(O)cc2)NC(=O)[C@H](C(C)C)NC(=O)[C@H](CC(=O)O)NC(=O)[C@H](CC2CCOCC2)NC(=O)[C@H](CCCCNC(=O)CCOCCOCCOCCOCCOCCOCCOCCOCCOCCOCCOCCOCCOCCOCCOCCOCCOCCOCCOCCOCCOCCC(=O)O)NC(=O)CNC(=O)[C@H](C(C)(C)C)NC1=O [compound 341, Ac-hLeu-Y-C-Tbg-G-K(PEG21-COOH)-ThpA-D-V-Y-C-5FW-F-Thr-dLys(DOTA)-COOH] (Ac-[hLeu]YC[Tle]GK(X16)[Ala(4-THP)]DVYC[Trp(5-F)]FT[dK](DOTA)-OH; disulfide 3-11)"
5,10 to 100,"CC(=O)N[C@@H](CCC(C)C)C(=O)N[C@@H](Cc1ccc(O)cc1)C(=O)N[C@H]1CSSC[C@@H](C(=O)N[C@@H](Cc2c[nH]c3ccc(F)cc23)C(=O)N[C@@H](Cc2ccccc2)C(=O)N[C@H](C(=O)O)C(C)(C)O)NC(=O)[C@H](Cc2ccc(O)cc2)NC(=O)[C@H](C(C)C)NC(=O)[C@H](CC(=O)O)NC(=O)[C@H](CC2CCOCC2)NC(=O)[C@H](CC2CCN(C(=O)CN3CCN(CC(=O)O)CCN(CC(=O)O)CCN(CC(=O)O)CC3)CC2)NC(=O)CNC(=O)[C@H](C(C)(C)C)NC1=O [compound 342, Ac-hLeu-Y-C-Tbg-G-Pip(DOTA)Ala-ThpA-D-V-Y-C-5FW-F-hydroxyVal-COOH] (Ac-[hLeu]YC[Tle]G[Ala(piperidin-4-yl)](DOTA)[Ala(4-THP)]DVYC[Trp(5-F)]F[Val(3-OH)]-OH; disulfide 3-11)"
